In DBAASP one finds MIC data, which are given here for 13 compounds.

Each structure is given as a SMILES string. Values after ≈ are worked out from the molar mass of the structure shown. A value given as a limit tells only on which side of the number the result lay.

Among the test systems are Acinetobacter baumannii; Bacillus subtilis; Escherichia coli; Staphylococcus aureus.
Common to all, as to assay: ≥ marks a high value that may be exact or a test limit, other limits are often not marked, values filed in µg/mL are converted to µM
The subject of test [1] is Escherichia coli ATCC 25726.
In test [2] the test system is Staphylococcus aureus ATCC 25923.
In test [3] the test system is Escherichia coli ATCC 25922.
Test [4] has as its system Klebsiella pneumoniae ATCC 700603.
For test [5], the system named is Pseudomonas aeruginosa ATCC 9027.
The subject of test [6] is Escherichia coli DH5alpha.
Test [7] has as its system Pseudomonas aeruginosa ATCC 27853.
Test [8] has as its system Candida albicans ATCC 2002.
In test [9] the test system is Pseudomonas aeruginosa PAO1.
The subject of test [10] is Staphylococcus aureus ATCC 6538.
The subject of test [11] is Acinetobacter baumannii ATCC 19606.

For orientation: MIC means the lowest concentration found to suppress growth. A low value points to a more susceptible organism.

With `CC[C@H](C)[C@@H]1NC(=O)[C@H](CCSC)NC(=O)[C@@H]2CCCN2C(=O)[C@@H]2CCCN2C(=O)[C@@H](NC(=O)[C@@H](N)Cc2c[nH]c3ccccc23)CSSC[C@@H](C(=O)N[C@@H](CO)C(=O)N[C@@H](CCCN=C(N)N)C(=O)N[C@@H](Cc2ccccc2)C(N)=O)NC(=O)[C@H](CC(C)C)NC(=O)[C@@H]2CCCN2C1=O` [WCPPMIPLCSRF], the minimum inhibitory concentration (MIC) was at least 200 µM in [1] and over 200 µM in test [2].
`CC(C)C[C@H](NC(=O)[C@H](CC(C)C)NC(=O)CNC(=O)[C@H](CO)NC(=O)[C@H](CC(C)C)NC(=O)[C@H](CC(C)C)NC(=O)CNC(=O)[C@@H](NC(=O)[C@@H](NC(=O)[C@H](CC(C)C)NC(=O)[C@@H]1CCCN1C(=O)[C@H](CC(C)C)NC(=O)[C@@H](N)Cc1ccccc1)C(C)C)[C@@H](C)O)C(N)=O` [FLPLVTGLLSGLL]: the MIC in [1] was at least 128 µM; in test [2], 64 µM (≈ 85.9 µg/mL).
Turning to `CC[C@H](C)[C@H](NC(=O)[C@H](C)N)C(=O)N[C@@H](Cc1c[nH]c2ccccc12)C(=O)N[C@@H](CCCN=C(N)N)C(=O)N[C@@H](CCCCN)C(=O)N[C@@H](C)C(=O)N[C@H](C(=O)N[C@@H](CCCN=C(N)N)C(=O)N[C@@H](CCCN=C(N)N)C(=O)N[C@@H](CC(C)C)C(=O)N[C@H](C(=O)N[C@@H](CCCCN)C(=O)N[C@@H](CC(C)C)C(=O)N[C@H](C(=O)N[C@H](C(N)=O)C(C)C)[C@@H](C)CC)C(C)C)[C@@H](C)O` [AIWRKATRRLVKLIV], the minimum inhibitory concentration (MIC) came to 3.12 µM (≈ 5.69 µg/mL) with Acinetobacter baumannii; 12.5 µM (≈ 22.8 µg/mL) in [3]; 25 µM (≈ 45.6 µg/mL) in test [4]; 3 µM (≈ 5.47 µg/mL) in test [5]; 12 µM (≈ 21.9 µg/mL) in test [2].
Regarding `NCCCC[C@H](NC(=O)[C@H](Cc1c[nH]c2ccccc12)NC(=O)CN)C(=O)N[C@@H](CCCN=C(N)N)C(=O)N[C@@H](CCCCN)C(=O)N[C@@H](CCCN=C(N)N)C(=O)N[C@@H](Cc1ccccc1)C(=O)NCC(=O)O` [GWKRKRFG], the minimum inhibitory concentration (MIC) was at least 200 µM in the test on Bacillus subtilis, at least 200 µM in [6], over 200 µM in [7] and over 200 µM in test [2].
For the compound `CC[C@H](C)[C@H](NC(=O)CNC(=O)[C@H](CO)NC(=O)[C@H](CC(C)C)NC(=O)[C@H](C)NC(=O)CNC(=O)[C@H](CC(C)C)NC(=O)[C@@H](NC(=O)[C@H](CC(C)C)NC(=O)[C@@H]1CCCN1C(=O)[C@H](CC(C)C)NC(=O)[C@@H](N)Cc1ccccc1)C(C)C)C(=O)N[C@@H](CC(C)C)C(=O)N1CCC[C@H]1C(=O)N[C@@H](CCCCN)C(=O)N[C@H](C(=O)N[C@@H](CC(C)C)C(N)=O)[C@@H](C)CC` [FLPLVLGALSGILPKIL], the MIC in the test with Bacillus subtilis worked out at 5.32 µM (≈ 9.37 µg/mL); in test [8], 4.68 µM (≈ 8.26 µg/mL); in [7] it was 2.66 µM (≈ 4.69 µg/mL); in test [9], 2.66 µM (≈ 4.69 µg/mL); in test [2], 2.66 µM (≈ 4.69 µg/mL).
In test [10], `CC(C)C[C@H](NC(=O)[C@@H]1CCCN1C(=O)CNC(=O)[C@@H]1CCCN1C(=O)[C@H](CC(C)C)NC(=O)CN)C(=O)NCC(=O)N1CCC[C@H]1C(=O)N[C@@H](C)C(=O)NCC(=O)N1CCC[C@H]1C(=O)N[C@@H](CCCCN)C(=O)O` [GLPGPLGPAGPK] registered an MIC of 1330 µM (≈ 1410 µg/mL).
For `CC[C@H](C)[C@H](NC(=O)[C@H](CO)NC(=O)[C@H](C)NC(=O)[C@@H]1CCCN1C(=O)[C@H](CC(C)C)NC(=O)CN)C(=O)N[C@@H](CO)C(=O)N[C@@H](Cc1c[nH]c2ccccc12)C(=O)N[C@H](C(=O)N[C@@H](CCCCN)C(=O)N[C@@H](CCCN=C(N)N)C(=O)N[C@@H](CCCCN)C(=O)N[C@@H](CCCN=C(N)N)C(=O)N[C@@H](CCC(N)=O)C(=O)N[C@@H](CCC(N)=O)C(N)=O)[C@@H](C)CC` [GLPASISWIKRKRQQ], the MIC against Bacillus subtilis was 17.6 µM (≈ 31.2 µg/mL); against Escherichia coli, over 141 µM; against Staphylococcus aureus, 141 µM (≈ 250 µg/mL).
Take `CC(C)C[C@H](NC(=O)[C@H](C)NC(=O)[C@H](CC(C)C)NC(=O)[C@H](CC(C)C)NC(=O)[C@H](CCCCN)NC(=O)[C@H](CCCCN)NC(=O)[C@H](C)NC(=O)[C@H](CC(C)C)NC(=O)[C@H](CCCCN)NC(=O)[C@H](C)NC(=O)[C@H](CC(C)C)NC(=O)[C@H](CCCCN)NC(=O)[C@H](CCCCN)NC(=O)[C@H](C)NC(=O)[C@@H](N)Cc1ccccc1)C(N)=O` [FAKKLAKLAKKLLAL]: the MIC in [5] was 30.2 µM (≈ 50 µg/mL); in test [10], 3.02 µM (≈ 5 µg/mL).
With `CC(C)C[C@H](NC(=O)[C@H](CC(C)C)NC(=O)[C@H](CCCCN)NC(=O)[C@H](CCCCN)NC(=O)[C@H](CC(C)C)NC(=O)[C@@H](NC(=O)[C@H](CCCCN)NC(=O)[C@H](CC(C)C)NC(=O)[C@@H](N)Cc1ccccc1)[C@@H](C)O)C(N)=O` [FLKTLKKLL], the MIC in [11] was 58 µM (≈ 63.9 µg/mL); in [3], 58 µM (≈ 63.9 µg/mL); in test [7], 7.25 µM (≈ 7.99 µg/mL); in test [2] it was 58 µM (≈ 63.9 µg/mL).
Consider `CC(C)C[C@H](NC(=O)[C@H](C)NC(=O)[C@H](Cc1ccccc1)NC(=O)[C@H](CCCCN)NC(=O)[C@H](CCCCN)NC(=O)[C@H](C)NC(=O)[C@H](CC(C)C)NC(=O)[C@H](CCCCN)NC(=O)[C@H](C)NC(=O)[C@H](CC(C)C)NC(=O)[C@H](CC(C)C)NC(=O)[C@H](CCCCN)NC(=O)[C@H](C)NC(=O)[C@@H](N)Cc1ccccc1)C(N)=O` [FAKLLAKLAKKFAL], for which the minimum inhibitory concentration (MIC) stood at 128 µM (≈ 200 µg/mL) in test [5] and 32 µM (≈ 50 µg/mL) in test [10].
For the compound `CC[C@H](C)[C@H](NC(=O)[C@@H](NC(=O)[C@@H](NC(=O)[C@@H]1CCCN1C(=O)[C@H](Cc1c[nH]c2ccccc12)NC(=O)[C@H](Cc1ccccc1)NC(=O)[C@H](CCCN=C(N)N)NC(=O)[C@H](CCCCN)NC(=O)[C@@H](NC(=O)[C@@H](N)CCCN=C(N)N)[C@@H](C)CC)C(C)C)C(C)C)C(=O)N[C@@H](CCCN=C(N)N)C(=O)N[C@H](C(=O)N[C@H](C(=O)N[C@H](C(=O)N[C@@H](C)C(=O)NCC(=O)N[C@@H](Cc1ccc(O)cc1)C(=O)N[C@@H](CC(N)=O)C(=O)N[C@@H](CC(C)C)C(=O)N[C@@H](Cc1ccc(O)cc1)C(=O)N[C@@H](CCCN=C(N)N)C(=O)N[C@@H](C)C(=O)O)C(C)C)C(C)C)[C@@H](C)O` [RIKRFWPVVIRTVVAGYNLYRA], the MIC worked out at 1.75 µM (≈ 4.69 µg/mL) in [8], 1.75 µM (≈ 4.69 µg/mL) in test [3] and 28 µM (≈ 75 µg/mL) in [2].
`CC[C@H](C)[C@H](NC(=O)[C@H](C)NC(=O)[C@H](CCCN=C(N)N)NC(=O)[C@H](Cc1ccc(O)cc1)NC(=O)[C@H](CC(C)C)NC(=O)[C@H](CC(N)=O)NC(=O)[C@H](Cc1ccc(O)cc1)NC(=O)CNC(=O)[C@H](C)NC(=O)[C@@H](NC(=O)[C@@H](NC(=O)[C@@H](NC(=O)[C@H](CCCN=C(N)N)NC(=O)[C@@H](NC(=O)[C@@H](NC(=O)[C@@H](NC(=O)[C@@H]1CCCN1C(=O)[C@H](Cc1c[nH]c2ccccc12)NC(=O)[C@H](Cc1ccccc1)NC(=O)[C@H](CCCN=C(N)N)NC(=O)[C@H](CCCCN)NC(=O)[C@@H](NC(=O)[C@@H](N)CCCN=C(N)N)[C@@H](C)CC)C(C)C)C(C)C)[C@@H](C)CC)[C@@H](C)O)C(C)C)C(C)C)C(=O)O` [RIKRFWPVVIRTVVAGYNLYRAI]: the MIC was 13.4 µM (≈ 37.5 µg/mL) in the test on Bacillus subtilis, 0.84 µM (≈ 2.34 µg/mL) in [8], 3.36 µM (≈ 9.38 µg/mL) in [3] and 13.4 µM (≈ 37.5 µg/mL) in test [2].
In test [11], `CC[C@H](C)[C@H](NC(=O)CNC(=O)[C@H](CCCCN)NC(=O)[C@H](CC(C)C)NC(=O)[C@@H](N)Cc1ccccc1)C(=O)N[C@H](C(=O)N[C@@H](CC(=O)O)C(=O)N[C@H](C(=O)N[C@H](C(=O)N[C@@H](CO)C(=O)N[C@@H](CC(N)=O)C(=O)N[C@@H](Cc1c[nH]c2ccccc12)C(=O)N[C@@H](CC(C)C)C(N)=O)C(C)C)[C@@H](C)O)[C@@H](C)CC` [FLKGIIDTVSNWL] had a minimal inhibitory concentration (MIC) of over 26.6 µM.
